Experimental data taken from PubChem BioAssay AID2060483 (Molecular Pharmacology Branch, DTP, NCI, 2025).

Tested on: K24384-001-R-PDC complex spheroids, viability
Test: Anticancer human tumor K24384-001-R-PDC patient-derived pancreatic adenocarcinoma cell line growth inhibition [GQUAD]
Details: for IC50: curve of first compound; for viability, T/C: stronger effect = lower value
In short: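 Viability of tumor cells grown as complex spheroids with endothelial and stromal cells, exposed to drug combinations. Top concentration at or near clinical Cmax (else 10 microM), diluted in half-log increments.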

[1] = second compound 0.0316 µM, first compound 0.0316 µM
[2] = second compound 0.0316 µM, first compound 0.1 µM
[3] = second compound 0.0316 µM, first compound 0.316 µM
[4] = second compound 0.0316 µM, first compound 1 µM
[5] = second compound 0.0316 µM, first compound 3.16 µM
[6] = second compound 0.0316 µM, first compound 10 µM
[7] = second compound 0.1 µM, first compound 0.0316 µM
[8] = second compound 0.1 µM, first compound 0.1 µM
[9] = second compound 0.1 µM, first compound 0.316 µM
[10] = second compound 0.1 µM, first compound 1 µM
[11] = second compound 0.1 µM, first compound 3.16 µM
[12] = second compound 0.1 µM, first compound 10 µM
[13] = second compound 0.316 µM, first compound 0.0316 µM
[14] = second compound 0.316 µM, first compound 0.1 µM
[15] = second compound 0.316 µM, first compound 0.316 µM
[16] = second compound 0.316 µM, first compound 1 µM
[17] = second compound 0.316 µM, first compound 3.16 µM
[18] = second compound 0.316 µM, first compound 10 µM
[19] = second compound 1 µM, first compound 0.0316 µM
[20] = second compound 1 µM, first compound 0.1 µM
[21] = second compound 1 µM, first compound 0.316 µM
[22] = second compound 1 µM, first compound 1 µM
[23] = second compound 1 µM, first compound 3.16 µM
[24] = second compound 1 µM, first compound 10 µM
[25] = second compound 3.16 µM, first compound 0.0316 µM
[26] = second compound 3.16 µM, first compound 0.1 µM
[27] = second compound 3.16 µM, first compound 0.316 µM
[28] = second compound 3.16 µM, first compound 1 µM
[29] = second compound 3.16 µM, first compound 3.16 µM
[30] = second compound 3.16 µM, first compound 10 µM
[31] = second compound 10 µM, first compound 0.0316 µM
[32] = second compound 10 µM, first compound 0.1 µM
[33] = second compound 10 µM, first compound 0.316 µM
[34] = second compound 10 µM, first compound 1 µM
[35] = second compound 10 µM, first compound 3.16 µM
[36] = second compound 10 µM, first compound 10 µM
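Further: spheroids exposed to compounds for seven days.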

SMILES: C#Cc1c(F)ccc2cc(O)cc(-c3ncc4c(N5CC6CCC(C5)N6)nc(OCC56CCCN5CC(F)C6)nc4c3F)c12 (stereo not given) + CN(C)c1ccc(Nc2c3ccc(NC(=O)CCN4CCCC4)cc3nc3cc(NC(=O)CCN4CCCC4)ccc23)cc1
- IC50 (second compound 0.0316 µM): 1050 nM
- IC50 (second compound 0.1 µM): 1690 nM
- IC50 (second compound 0.316 µM): 1520 nM
- IC50 (second compound 1 µM): 1780 nM
- IC50 (second compound 3.16 µM): 1750 nM
- IC50 (second compound 10 µM): 1120 nM
- viability, T/C [1]: 101%
- viability, T/C [2]: 84.6%
- viability, T/C [3]: 68.1%
- viability, T/C [4]: 51.5%
- viability, T/C [5]: 32.5%
- viability, T/C [6]: 14.4%
- viability, T/C [7]: 109%
- viability, T/C [8]: 105%
- viability, T/C [9]: 78.2%
- viability, T/C [10]: 63.9%
- viability, T/C [11]: 36.1%
- viability, T/C [12]: 16%
- viability, T/C [13]: 87.7%
- viability, T/C [14]: 108%
- viability, T/C [15]: 85%
- viability, T/C [16]: 61.5%
- viability, T/C [17]: 31.1%
- viability, T/C [18]: 20.1%
- viability, T/C [19]: 104%
- viability, T/C [20]: 82.1%
- viability, T/C [21]: 90.4%
- viability, T/C [22]: 58.1%
- viability, T/C [23]: 38.7%
- viability, T/C [24]: 17.6%
- viability, T/C [25]: 89.3%
- viability, T/C [26]: 85.8%
- viability, T/C [27]: 92.3%
- viability, T/C [28]: 61.9%
- viability, T/C [29]: 35.5%
- viability, T/C [30]: 14.4%
- viability, T/C [31]: 92.5%
- viability, T/C [32]: 77%
- viability, T/C [33]: 68.5%
- viability, T/C [34]: 55.1%
- viability, T/C [35]: 30.1%
- viability, T/C [36]: 7.21%

SMILES: CC(=O)O[C@H]1C(=O)[C@@]2(C)[C@H]([C@H](OC(=O)c3ccccc3)[C@]3(O)C[C@H](OC(=O)[C@H](O)[C@@H](NC(=O)c4ccccc4)c4ccccc4)C(C)=C1C3(C)C)[C@]1(OC(C)=O)CO[C@@H]1C[C@@H]2O + CN(C)c1ccc(Nc2c3ccc(NC(=O)CCN4CCCC4)cc3nc3cc(NC(=O)CCN4CCCC4)ccc23)cc1
- IC50 (second compound 0.0316 µM): < 31.6 nM
- IC50 (second compound 0.1 µM): < 31.6 nM
- IC50 (second compound 0.316 µM): < 31.6 nM
- IC50 (second compound 1 µM): < 31.6 nM
- IC50 (second compound 3.16 µM): < 31.6 nM
- IC50 (second compound 10 µM): < 31.6 nM
- viability, T/C [1]: 32.2%
- viability, T/C [2]: 22.9%
- viability, T/C [3]: 20.5%
- viability, T/C [4]: 20.1%
- viability, T/C [5]: 22.4%
- viability, T/C [6]: 25.3%
- viability, T/C [7]: 34.5%
- viability, T/C [8]: 22.1%
- viability, T/C [9]: 18.5%
- viability, T/C [10]: 21.3%
- viability, T/C [11]: 20.7%
- viability, T/C [12]: 25.7%
- viability, T/C [13]: 37.3%
- viability, T/C [14]: 22.4%
- viability, T/C [15]: 17.6%
- viability, T/C [16]: 19.8%
- viability, T/C [17]: 19.5%
- viability, T/C [18]: 25.7%
- viability, T/C [19]: 33.4%
- viability, T/C [20]: 23.7%
- viability, T/C [21]: 19.3%
- viability, T/C [22]: 19.9%
- viability, T/C [23]: 26.1%
- viability, T/C [24]: 27.5%
- viability, T/C [25]: 29.4%
- viability, T/C [26]: 20.7%
- viability, T/C [27]: 24.4%
- viability, T/C [28]: 17.4%
- viability, T/C [29]: 23.2%
- viability, T/C [30]: 30.1%
- viability, T/C [31]: 38.2%
- viability, T/C [32]: 26.4%
- viability, T/C [33]: 24.9%
- viability, T/C [34]: 24.5%
- viability, T/C [35]: 33.9%
- viability, T/C [36]: 40.9%

SMILES: CC(C)(O)C1CCC(Nc2ccc3ncc(-c4cccc(C(F)(F)F)c4)n3n2)CC1 (stereo not given) + CN(C)c1ccc(Nc2c3ccc(NC(=O)CCN4CCCC4)cc3nc3cc(NC(=O)CCN4CCCC4)ccc23)cc1
- IC50 (second compound 0.0316 µM): 2350 nM
- IC50 (second compound 0.1 µM): 2030 nM
- IC50 (second compound 0.316 µM): 2380 nM
- IC50 (second compound 1 µM): 2160 nM
- IC50 (second compound 3.16 µM): 1890 nM
- IC50 (second compound 10 µM): 1240 nM
- viability, T/C [1]: 106%
- viability, T/C [2]: 106%
- viability, T/C [3]: 102%
- viability, T/C [4]: 84.6%
- viability, T/C [5]: 37.5%
- viability, T/C [6]: 37.2%
- viability, T/C [7]: 105%
- viability, T/C [8]: 104%
- viability, T/C [9]: 96.4%
- viability, T/C [10]: 79%
- viability, T/C [11]: 30.5%
- viability, T/C [12]: 33.4%
- viability, T/C [13]: 104%
- viability, T/C [14]: 98.1%
- viability, T/C [15]: 98%
- viability, T/C [16]: 94.6%
- viability, T/C [17]: 35.4%
- viability, T/C [18]: 34.3%
- viability, T/C [19]: 106%
- viability, T/C [20]: 109%
- viability, T/C [21]: 109%
- viability, T/C [22]: 82%
- viability, T/C [23]: 28.6%
- viability, T/C [24]: 39.6%
- viability, T/C [25]: 100%
- viability, T/C [26]: 101%
- viability, T/C [27]: 107%
- viability, T/C [28]: 77.4%
- viability, T/C [29]: 26.2%
- viability, T/C [30]: 29.8%
- viability, T/C [31]: 94.4%
- viability, T/C [32]: 98%
- viability, T/C [33]: 77.9%
- viability, T/C [34]: 61.5%
- viability, T/C [35]: 16.9%
- viability, T/C [36]: 16.9%

SMILES: O=C(NO)c1cnc(N2CCN(S(=O)(=O)c3ccc4ccccc4c3)CC2)nc1 + CN(C)c1ccc(Nc2c3ccc(NC(=O)CCN4CCCC4)cc3nc3cc(NC(=O)CCN4CCCC4)ccc23)cc1
- IC50 (second compound 0.0316 µM): 603 nM
- IC50 (second compound 0.1 µM): 511 nM
- IC50 (second compound 0.316 µM): 553 nM
- IC50 (second compound 1 µM): 554 nM
- IC50 (second compound 3.16 µM): 475 nM
- IC50 (second compound 10 µM): 476 nM
- viability, T/C [1]: 111%
- viability, T/C [2]: 91.6%
- viability, T/C [3]: 83.1%
- viability, T/C [4]: 25.2%
- viability, T/C [5]: 0.22%
- viability, T/C [6]: 0.18%
- viability, T/C [7]: 111%
- viability, T/C [8]: 97.7%
- viability, T/C [9]: 70.1%
- viability, T/C [10]: 23.5%
- viability, T/C [11]: 0.13%
- viability, T/C [12]: 0.14%
- viability, T/C [13]: 108%
- viability, T/C [14]: 126%
- viability, T/C [15]: 74.3%
- viability, T/C [16]: 23.4%
- viability, T/C [17]: 0.14%
- viability, T/C [18]: 0.18%
- viability, T/C [19]: 107%
- viability, T/C [20]: 117%
- viability, T/C [21]: 73.6%
- viability, T/C [22]: 24.3%
- viability, T/C [23]: 0.16%
- viability, T/C [24]: 0.16%
- viability, T/C [25]: 105%
- viability, T/C [26]: 103%
- viability, T/C [27]: 65.3%
- viability, T/C [28]: 20.6%
- viability, T/C [29]: 0.14%
- viability, T/C [30]: 0.16%
- viability, T/C [31]: 105%
- viability, T/C [32]: 92.3%
- viability, T/C [33]: 65.1%
- viability, T/C [34]: 24.7%
- viability, T/C [35]: 0.22%
- viability, T/C [36]: 0.22%

SMILES: O=c1[nH]cc(F)c(=O)[nH]1 + CN(C)c1ccc(Nc2c3ccc(NC(=O)CCN4CCCC4)cc3nc3cc(NC(=O)CCN4CCCC4)ccc23)cc1
- IC50 (second compound 0.0316 µM): 2200 nM
- IC50 (second compound 0.1 µM): 1570 nM
- IC50 (second compound 0.316 µM): 1650 nM
- IC50 (second compound 1 µM): 1260 nM
- IC50 (second compound 3.16 µM): 1360 nM
- IC50 (second compound 10 µM): 1750 nM
- viability, T/C [1]: 111%
- viability, T/C [2]: 71.7%
- viability, T/C [3]: 88.4%
- viability, T/C [4]: 52.4%
- viability, T/C [5]: 42.5%
- viability, T/C [6]: 40.3%
- viability, T/C [7]: 98.7%
- viability, T/C [8]: 100%
- viability, T/C [9]: 66.5%
- viability, T/C [10]: 59.2%
- viability, T/C [11]: 42.7%
- viability, T/C [12]: 33.3%
- viability, T/C [13]: 94.8%
- viability, T/C [14]: 94.8%
- viability, T/C [15]: 72.6%
- viability, T/C [16]: 59.1%
- viability, T/C [17]: 40.4%
- viability, T/C [18]: 32.5%
- viability, T/C [19]: 90.2%
- viability, T/C [20]: 88.8%
- viability, T/C [21]: 72.4%
- viability, T/C [22]: 57.5%
- viability, T/C [23]: 31.3%
- viability, T/C [24]: 32.1%
- viability, T/C [25]: 83.9%
- viability, T/C [26]: 89.5%
- viability, T/C [27]: 65.9%
- viability, T/C [28]: 57.3%
- viability, T/C [29]: 37.6%
- viability, T/C [30]: 31.5%
- viability, T/C [31]: 83.4%
- viability, T/C [32]: 85.2%
- viability, T/C [33]: 62.2%
- viability, T/C [34]: 69%
- viability, T/C [35]: 34.1%
- viability, T/C [36]: 31.7%
